Source: patent US7993670B2, “Medical pad, and method for making and using” (General Wound Kare, Inc., priority 2003, dated 2011)

System: wound
Assay: Clinical experience: treatment of a patient's wound
[1] = after a week of daily 1% gentian violet solution

Source text: A change in the procedure was made. Instead of the direct application of the 1% gentian violet solution, a polyurethane pad, containing a reduced amount of gentian violet, mixed with glycerin and water, and then dried, was applied to the wound covered by the scab. Daily washings were continued and the scab was eventually debrided.

## CN(C)c1ccc(C(=C2C=CC(=[N+](C)C)C=C2)c2ccc(N(C)C)cc2)cc1 [gentian violet]
1% gentian violet solution applied daily, wound washed daily with soap and water
  scab formation: scab was formed
[1]
  infection of the wound: no evidence of any infection
  size of the wound: remained the same
Liquid gentian violet solution at 1% strength painted on the wound daily
  staining of the painted wound area: stained purple
